Experimental data taken from US20100311606A1, “PHARMACOGENOMIC CELL LINE PANEL AND USE THEREOF” (priority 2007, published 2010).

Legend:
[1] = system: human lymphoblastoid cell lines; assay: Gemcitabine and AraC cytotoxicity assay (MTS/PMS), Human Variation Panel; type: cell-based; conditions: 197 cell lines; mean±SD; 72 hours; read-out: Average unadjusted LC50
Method: (§1) Specifically, once cells grew at an exponential phase, 90 μl of cell suspension were placed into a 96 well flat plate (Corning, Corning, N.Y.) at a density of 5×10^4 cells/well. […] Experiments were performed in triplicate for each concentration. Medium alone was used as a blank, and cells treated with DMSO were used as controls for every plate. At end of the incubation, 20 μl combined MTS/PMS solution were added into each well and incubated at 37° C. for an additional 1-2 hours. The amount of soluble formazan was measured with a SAFIRE™ microplate reader (Tecan A G, Switzerland). An absorbance for the control cells ranging from 0.8 to 1.3 was considered to meet the standard of cytotoxicity assays for the analysis. The final cell viability for each well was calculated using the following formula: relative survival cell number=absorbance (drug-treated cells−blank)/absorbance (control cells−[…]). […] GI50 values at each concentration for each cell lines were then calculated based on the dose response curve. […] In addition, to functionally characterize the effect of the candidate genes on the sensitivity to both drugs, drug cytotoxicity with human tumor cell lines also was analyzed using an MTS assay. […]

[2] = system: MDA-MB-231 breast cancer cells; assay: Cytotoxicity (MTS) after siRNA knockdown of NT5C3 or FKBP5; type: cell-based, human; conditions: for Change of drug sensitivity after FKBP5 siRNA: FKBP5 specific siRNA vs negative siRNA
Method: (§2) Specifically, once cells grew at an exponential phase, 90 μl of cell suspension were placed into a 96 well flat plate (Corning, Corning, N.Y.) at a density of 5×10^4 cells/well. […] Experiments were performed in triplicate for each concentration. Medium alone was used as a blank, and cells treated with DMSO were used as controls for every plate. At end of the incubation, 20 μl combined MTS/PMS solution were added into each well and incubated at 37° C. for an additional 1-2 hours. The amount of soluble formazan was measured with a SAFIRE™ microplate reader (Tecan A G, Switzerland). An absorbance for the control cells ranging from 0.8 to 1.3 was considered to meet the standard of cytotoxicity assays for the analysis. The final cell viability for each well was calculated using the following formula: relative survival cell number=absorbance (drug-treated cells−blank)/absorbance (control cells−[…]). During the entire process from cell culture to cytotoxicity analysis, all cell lines were grown exponentially without antibiotics and were handled by one person under the same condition to minimize the variation introduced by handling. The final dose-response curve for each cell line was plotted based on either 4 parameter logistic with top=100%, or 4 parameter logistic with bottom=0% using an R package. GI50 values at each concentration for each cell lines were then calculated based on the dose response curve. Twelve randomly selected lymphoblastoid cell lines were used to repeat the cytotoxicity studies three months later. In addition, to functionally characterize the effect of the candidate genes on the sensitivity to both drugs, drug cytotoxicity with human tumor cell lines also was analyzed using an MTS assay. The experimental procedures were similar to those for the lymphoblastoid cell lines, except that the cells were incubated overnight in 96 well plates before addition of the two drugs.
(§3) Transient transfection and RNA interference: The human breast cancer cell line, MDA-MB-231, and the human pancreatic cancer cell line, SU86, were used for siRNA studies. The LIPOFECTAMINE™ RNAiMAX reagent (Invitrogen, Carlsbad, Calif.) was used for transient transfection of siRNA according to the manufacturer's instructions. Briefly, cells were growing adhesively until they reached 30-50% confluence in a 6-well plate, and then transfected. siRNAs including NT5C3-siRNA, FKBP5-siRNA and Allstars negative control siRNA (Qiagen) at a final concentration of 50 nM, as well as 5 μL, of LIPOFECTAMINE™ RNAiMAX reagent, were preincubated with 250 μL, reduced serum medium (Invitrogen) for 5 minutes at room temperature before being mixed together. After incubation of the siRNA and LIPOFECTAMINE™ reagent mixtures for 20 minutes at room temperature, this mixture was added to cells in 2 ml culture medium supplied with 10% FBS. Cells were harvested for further assays 48 hours post-transfection.
(§4) Transient transfections were first performed with NT5C3 and FKBP5 specific siRNAs. Western blots verified that both genes were knocked down in both tumor cell lines (FIG. 21A and FIG. 22A). […] That relationship also was confirmed by knockdown experiments performed with FKBP5 specific siRNA.

[3] = system: SU86 pancreatic cancer cells; assay: as above; type: cell-based, human; conditions: for Change of drug sensitivity after FKBP5 siRNA: FKBP5 specific siRNA vs negative siRNA
Method: as §2, §3, §4

[4] = system: MDA-MB-231 cells; assay: Caspase-3/7 activity assay in siRNA-transfected cells; type: cell-based, human; conditions: increasing drug concentrations, 72 hours, compared with negative siRNA
Method: (§5) Error bars represent SEM values for 3 independent experiments.
(§6) Caspase-3/7 activity assay: The caspase-3 activity of siRNA-transfected cells was detected according to the manufacture's protocol using CASPASE-GLO® 3/7 Assay kit (Promega BioSciences, San Luis Obispo, Calif.). Once a proluminescent caspase-3/7 substrate containing the tetrapeptide sequence DEVD is cleaved by caspase-3/7, it will release a substrate for luciferase (amino-luciferin). […] CASPASE-GLO® 3/7 Reagent (100 μl; an equal volume to the cell suspension) was added and incubated for 1 hour at room temperature, followed by detection of luminescence with a luminometer. Wells containing culture medium alone were used as controls.
(§7) One possibility would involve the blockade of apoptosis signaling pathways as a result of FKBP5 knock-down. FKBP5 has been reported to be involved in apoptosis through a calcineurin-dependent pathway (Giraudier et al. Blood (2002) 100:2932-2940). To test that hypothesis, caspase-3/7 activity assays were performed to determine whether alterations in FKBP5 expression might influence apoptotic signaling. […] Specific mechanisms by which FKBP5 might influence apoptosis will require future clarification.

[5] = system: SU86 cells; assay: as above; type: cell-based, human; conditions: increasing drug concentrations, 72 hours, compared with negative siRNA
Method: as §5, §6, §7

[6] = system: lymphoblastoid cell lines; assay: Intracellular active metabolites by HPLC after drug treatment; conditions: after AraC treatment
Method: To measure the intracellular metabolite levels in drug-treated lymphoblastoid cell lines, an HPLC assay was developed to measure AraCDP, AraCTP as well as dFdCDP and dFdCTP. […] Five×10^6 cells were centrifuged and washed with ice-cold phosphate buffered saline (PBS), followed by resuspension in 135 μL, of ice-cold PBS with 15 μL, of 100 μM AraCTP or dFdCTP as internal standards. Subsequently 50 μL, of 40% ice cold TCA was added, and the mixture was vortexed for 1 minute and chilled on ice for 20 minutes, followed by centrifugation. The supernatant was neutralized by adding 400 μL, of freshly prepared trioctylamine:trichlorotrifluoroethane (1:4). After centrifugation at 4° C. for 1 minute, the aqueous phase (nucleotide extract) was removed and stored at −20° C. for HPLC analysis.
Nucleotide analogue metabolites were separated from native nucleotides on a ZirChrom SAX HPLC column in HPLC assay. […] Mobile phase A was 10 mM K2HPO4 and 40 mM NaCl, pH 6.8. Mobile phase B was 100 mM K2HPO4 and 400 mM K2HPO4, pH 6.8. Detection was performed by monitoring the absorbance with a photo-diode array between 240-290 nm to obtain a typical chromatogram. The amount of intracellular metabolites in 5×10^6 cells was quantified with a standard curve prepared by spiking the 5×10^6 untreated control cells with pure compound, immediately followed by nucleotide extraction.

[7] = system: lymphoblastoid cell lines; assay: Preliminary gemcitabine cytotoxicity, MTS assay, initial 71 cell lines; type: cell-based; conditions: Homo sapiens, read-out: IC50 values (the drug concentration that inhibited cell growth 50%), variation across initial 71 lymphoblastoid cell lines, 48 hours
Method: Gemcitabine cytotoxicity: Gemcitabine cytotoxicity after drug exposure is a major phenotype that is determined in the course of phenotype-genotype association studies for the lymphoblastoid cell lines. Increasing concentrations of gemcitabine are used to perform the cytotoxicity studies in a 96-well plate format. Approximately 5×10^5 lymphoblastoid cells are incubated overnight in each well before addition of the drug. The cells are then incubated for 48 hours with gemcitabine at 8 different concentrations, ranging from 10^−4 μM to 100 μM. Cytotoxicity is determined using the MTS assay. All studies are performed in triplicate, and both IC50 and LC50 values are calculated. To avoid confounding factors, cytotoxicity studies are performed with equal numbers of cell lines from each ethnic group in every experiment.
IC50 data have been obtained for 71 of 203 cell lines (the 71 cell lines for which Perlegen genome-wide SNP data is available). Significant variation in IC50 values was observed just for the initial 71 cell lines studied (FIG. 14). Each square in FIG. 14 represents an individual sample, and the colors represent different ethnic groups.

[8] = in vitro; type: cell-based; conditions: human
Method: as §1

[9] = molecular target: T1, thymidine kinase 2 (TK2) (Homo sapiens, UniProt O00142); conditions: as well as deoxycytidine; cited from earlier work
T1 sequence (O00142 34-265): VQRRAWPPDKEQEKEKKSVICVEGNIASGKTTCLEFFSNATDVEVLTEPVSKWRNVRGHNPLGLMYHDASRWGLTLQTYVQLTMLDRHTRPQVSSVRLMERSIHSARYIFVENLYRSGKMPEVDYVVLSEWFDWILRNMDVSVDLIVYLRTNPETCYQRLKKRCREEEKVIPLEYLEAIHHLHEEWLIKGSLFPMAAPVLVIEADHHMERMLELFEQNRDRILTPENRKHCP

[10] = system: patients with pancreatic cancer; conditions: patients treated with gemcitabine; cited from earlier work
[11] = average of 7 resistant cell samples
[12] = average of 7 sensitive cell samples
[13] = NT5C3 specific siRNA vs negative siRNA

Q: For `Nc1ccn([C@@H]2O[C@H](CO)[C@@H](O)[C@@H]2O)c(=O)n1` [AraC, cytosine arabinoside], which CC50 [1] is on record?
A: 8400 ± 14300 nM

Q: What about the “Change of drug sensitivity after FKBP5 siRNA” value (“Change … after FKBP5 siRNA” for short) [2] of the same molecule?
A: desensitized

Q: What about the “Change … after FKBP5 siRNA” value [3] of the same molecule?
A: desensitized

Q: What about the “caspase-3/7 activity in FKBP5 siRNA-treated cells” value (“caspase-3/7 activity” below) [4] of the same molecule?
A: significantly decreased

Q: What about the “caspase-3/7 activity” value [5] of the same molecule?
A: significantly decreased

Q: And the “AraCDP, Resistant, Average ± SEM” value [6, 11]?
A: 0.65 ± 0.13

Q: What about the “AraCTP, Resistant, Average ± SEM” value [6, 11] of the same molecule?
A: 2.62 ± 0.40

Q: And the “AraCDP, Sensitive, Average ± SEM” value [6, 12]?
A: 1.02 ± 0.18

Q: And the “AraCTP, Sensitive, Average ± SEM” value [6, 12]?
A: 4.43 ± 0.56

Q: For `Nc1ccn([C@@H]2O[C@H](CO)[C@@H](O)C2(F)F)c(=O)n1` [gemcitabine, 2′,2′-difluorodeoxycytidine], which IC50 [7] is on record?
A: 4 to 80 nM

Q: And the CC50 at 72 h [8]?
A: 25.3 ± 30.7 nM

Q: What about the “Change … after FKBP5 siRNA” value [2] of the same molecule?
A: desensitized

Q: What about the “Change of drug sensitivity (dose response curve) after NT5C3 siRNA” value [2, 13] of the same molecule?
A: increased sensitivity

Q: And the “Change … after FKBP5 siRNA” value [3]?
A: desensitized

Q: What about the “Change of drug sensitivity (dose response curve) after NT5C3 siRNA” value [3, 13] of the same molecule?
A: increased sensitivity

Q: And the “caspase-3/7 activity” value [4]?
A: significantly decreased

Q: And the “caspase-3/7 activity” value [5]?
A: significantly decreased

Q: And the “phosphorylation by TK2 relative to deoxycytidine” value [9]?
A: 5-10%

Q: And the “patients with life expectancies of over one year” value [10]?
A: approximately 20%
